Measured values as given in ChEMBL document CHEMBL6078698, “Discovery of 6-Fluoro-5-{4-[(5-fluoro-2-methyl-3-oxo-3,4-dihydroquinoxalin-6-yl)methyl]piperazin-1-yl}-N-methylpyridine-2-carboxamide (AZD9574): A CNS-Penetrant, PARP1-Selective Inhibitor” (J Med Chem, 2024).
Converted amounts (≈) assume the structure as drawn.

Legend:
[1] = Inhibition of cell proliferation of human DLD-1 cells expressing BRCA2-/- incubated for 7 days by Sytox green dye based analysis; type: functional; conditions: DLD-1, 168 h
[2] = Lipophilicity, log D of compound at pH 7.4; type: physicochemical; conditions: buffer
[3] = molecular target: Voltage-gated inwardly rectifying potassium channel KCNH2 (Homo sapiens, UniProt Q12809); assay: (§1) Inhibition of hERG transfected in CHO cells by electrophysiology; type: toxicity, cell-based
Sequence of Voltage-gated inwardly rectifying potassium channel KCNH2 (Q12809 whole entry): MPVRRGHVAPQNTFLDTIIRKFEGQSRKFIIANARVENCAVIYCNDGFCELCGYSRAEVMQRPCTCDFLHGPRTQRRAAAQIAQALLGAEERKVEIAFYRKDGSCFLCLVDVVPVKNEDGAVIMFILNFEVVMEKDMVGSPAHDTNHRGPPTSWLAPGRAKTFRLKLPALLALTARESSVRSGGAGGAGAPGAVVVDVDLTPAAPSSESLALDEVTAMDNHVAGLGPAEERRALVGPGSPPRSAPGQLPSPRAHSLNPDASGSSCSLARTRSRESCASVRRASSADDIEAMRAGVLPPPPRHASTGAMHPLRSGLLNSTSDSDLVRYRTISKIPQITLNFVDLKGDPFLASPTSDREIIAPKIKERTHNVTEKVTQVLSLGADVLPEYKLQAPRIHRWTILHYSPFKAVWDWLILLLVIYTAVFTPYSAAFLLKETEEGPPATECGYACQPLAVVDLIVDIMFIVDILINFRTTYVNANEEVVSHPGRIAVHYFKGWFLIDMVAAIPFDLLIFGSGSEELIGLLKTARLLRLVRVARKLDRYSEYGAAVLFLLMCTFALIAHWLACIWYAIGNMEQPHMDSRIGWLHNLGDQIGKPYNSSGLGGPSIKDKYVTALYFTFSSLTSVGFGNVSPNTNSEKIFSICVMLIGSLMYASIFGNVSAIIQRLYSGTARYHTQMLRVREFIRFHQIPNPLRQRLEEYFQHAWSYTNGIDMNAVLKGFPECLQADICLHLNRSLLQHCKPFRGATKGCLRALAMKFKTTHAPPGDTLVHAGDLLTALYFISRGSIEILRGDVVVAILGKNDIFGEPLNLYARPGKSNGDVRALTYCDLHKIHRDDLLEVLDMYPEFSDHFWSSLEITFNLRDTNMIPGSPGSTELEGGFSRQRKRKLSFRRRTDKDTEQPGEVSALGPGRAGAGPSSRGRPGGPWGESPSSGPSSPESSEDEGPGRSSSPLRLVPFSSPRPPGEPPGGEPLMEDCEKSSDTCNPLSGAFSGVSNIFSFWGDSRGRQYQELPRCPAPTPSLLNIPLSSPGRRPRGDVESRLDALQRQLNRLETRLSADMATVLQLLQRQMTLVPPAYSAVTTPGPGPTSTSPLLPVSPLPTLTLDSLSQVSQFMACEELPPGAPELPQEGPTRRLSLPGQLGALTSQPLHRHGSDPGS

[4] = molecular target: Poly [ADP-ribose] polymerase 1 (Homo sapiens, UniProt P09874); assay: Inhibition of N-terminal 6His-tagged full-length recombinant human PARP1 by fluorescence anisotropy assay
Sequence of Poly [ADP-ribose] polymerase 1 (P09874 whole entry): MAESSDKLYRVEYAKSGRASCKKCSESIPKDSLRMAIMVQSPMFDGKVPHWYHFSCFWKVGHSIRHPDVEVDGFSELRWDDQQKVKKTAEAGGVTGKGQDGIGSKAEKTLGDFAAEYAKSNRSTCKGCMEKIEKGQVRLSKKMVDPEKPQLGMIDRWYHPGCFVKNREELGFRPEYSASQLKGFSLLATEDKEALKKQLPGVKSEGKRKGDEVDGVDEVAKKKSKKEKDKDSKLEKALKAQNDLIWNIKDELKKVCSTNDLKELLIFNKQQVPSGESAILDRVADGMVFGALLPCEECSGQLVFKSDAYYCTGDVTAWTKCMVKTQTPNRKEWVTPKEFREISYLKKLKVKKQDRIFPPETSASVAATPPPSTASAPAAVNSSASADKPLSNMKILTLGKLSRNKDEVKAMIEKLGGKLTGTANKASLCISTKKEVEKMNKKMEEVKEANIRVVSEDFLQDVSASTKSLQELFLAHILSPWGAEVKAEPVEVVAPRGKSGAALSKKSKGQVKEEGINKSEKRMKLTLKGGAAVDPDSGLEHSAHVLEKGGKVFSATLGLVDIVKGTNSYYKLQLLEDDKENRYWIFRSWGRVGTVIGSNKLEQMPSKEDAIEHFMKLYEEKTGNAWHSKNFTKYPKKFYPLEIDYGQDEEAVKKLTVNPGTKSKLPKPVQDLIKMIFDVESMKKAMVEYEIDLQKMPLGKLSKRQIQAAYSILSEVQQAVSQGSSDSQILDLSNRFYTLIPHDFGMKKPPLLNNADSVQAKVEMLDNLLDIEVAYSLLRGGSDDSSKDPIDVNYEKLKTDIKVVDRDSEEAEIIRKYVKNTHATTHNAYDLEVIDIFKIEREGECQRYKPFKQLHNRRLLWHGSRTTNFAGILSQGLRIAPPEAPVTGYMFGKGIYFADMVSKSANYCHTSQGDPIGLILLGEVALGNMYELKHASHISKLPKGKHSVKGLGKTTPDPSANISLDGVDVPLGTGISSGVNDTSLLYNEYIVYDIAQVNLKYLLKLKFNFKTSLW

[5] = Intrinsic clearance in human liver microsomes; type: ADME, Microsome; conditions: read-out: CLH
MDR1 (P-gp), BCRP = assay: Efflux ratio in MDCK-MDR1-BCRP cells; type: ADME, cell-based, Canis lupus familiaris; conditions: dog
[6] = molecular target: Poly [ADP-ribose] polymerase 2 (Homo sapiens, UniProt Q9UGN5); assay: Inhibition of N-terminal 6His-tagged full-length recombinant human PARP2 by fluorescence anisotropy assay
Sequence of Poly [ADP-ribose] polymerase 2 (Q9UGN5 whole entry): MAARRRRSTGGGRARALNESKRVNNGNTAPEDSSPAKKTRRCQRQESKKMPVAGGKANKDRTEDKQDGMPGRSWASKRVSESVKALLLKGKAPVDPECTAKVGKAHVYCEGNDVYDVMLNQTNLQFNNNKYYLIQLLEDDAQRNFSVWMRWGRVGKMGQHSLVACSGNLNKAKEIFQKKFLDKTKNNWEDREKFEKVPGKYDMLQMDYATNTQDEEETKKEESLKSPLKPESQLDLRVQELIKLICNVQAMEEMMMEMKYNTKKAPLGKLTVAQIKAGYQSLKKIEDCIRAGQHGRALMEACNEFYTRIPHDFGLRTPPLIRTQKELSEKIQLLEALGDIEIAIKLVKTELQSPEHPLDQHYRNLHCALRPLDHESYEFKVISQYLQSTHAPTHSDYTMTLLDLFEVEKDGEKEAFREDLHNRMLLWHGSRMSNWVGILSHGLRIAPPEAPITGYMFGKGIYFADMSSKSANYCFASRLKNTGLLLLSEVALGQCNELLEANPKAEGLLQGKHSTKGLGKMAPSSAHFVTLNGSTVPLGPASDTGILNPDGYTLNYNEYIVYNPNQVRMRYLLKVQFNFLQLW

[7] = Solubility of compound at pH 7.4; type: physicochemical; conditions: buffer
hERG (KCNH2) = hERG (KCNH2) (Homo sapiens, UniProt Q12809); assay: as §1; type: toxicity, cell-based; conditions: human, CHO cells transfected with hERG
Sequence of hERG (KCNH2) (Q12809 whole entry): as the sequence (Q12809 whole entry) above

[8] = Ratio of unbound drug concentration in brain to plasma of rat; type: ADME, cell-free; conditions: for Kp uu: brain and plasma (unbound), read-out: K(p,uu,brain)

Row | logD [2] | IC50 [4] | microsomal CLint [5] | efflux ratio (MDR1 (P-gp), BCRP) | IC50 [6] | solubility [7] | K(p,uu,brain) ([8]; brain) | Kp uu [8] | Compound | IC50 [1] | IC50 [3] | IC50 (hERG (KCNH2))
1 |  |  |  |  |  |  |  |  | CCc1cc2cnc(CN3CCN(c4ccc(C(=O)NC)nc4)CC3)cc2[nH]c1=O | 3 nM |  | 
2 | 2.6 | 9 nM | < 3 µL/min/mg | 0.5 | 46000 nM | 9 µM (≈ 3.31 µg/mL) |  |  | CCc1nc2ccc(CN3CCN(c4ccc(F)nc4)CC3)cc2[nH]c1=O | 66 nM | > 40000 nM | 
3 | 2.6 |  | < 5 µL/min/mg |  |  | < 11 µM | 0.43 |  | CCc1nc2ccc(CN3CCN(c4ccc(C(=O)NC)nc4F)CC3)c(F)c2[nH]c1=O | 5 nM |  | > 40000 nM
4 | 2.9 |  | 10 µL/min/mg | 2.2 |  | 13 µM (≈ 5.47 µg/mL) |  |  | CCc1nc2ccc(CN3CCN(c4ccc(C(=O)NC)nc4C)CC3)cc2[nH]c1=O | 2 nM |  | 
5 | 2.1 | 8 nM | < 3 µL/min/mg | 3.6 | 26000 nM | 26 µM (≈ 10.7 µg/mL) |  |  | CNC(=O)c1ccc(N2CCN(Cc3ccc4nc(C)c(=O)[nH]c4c3)CC2)c(F)n1 |  |  | 
6 | 3 |  | 10 µL/min/mg | 6.7 |  | 8 µM (≈ 3.53 µg/mL) |  |  | CCc1nc2ccc(CN3CCN(c4ccc(C(=O)NC)nc4Cl)CC3)cc2[nH]c1=O | 1 nM |  | 
7 | 3.3 | 11 nM | 19 µL/min/mg | 1 | > 67000 nM | 9 µM (≈ 3.43 µg/mL) |  | 0.2 | CCc1nc2ccc(CN3CCN(c4cnc(F)cc4C)CC3)cc2[nH]c1=O | 13 nM | 23000 nM | 
8 |  |  |  |  |  |  |  | < 0.1 | NC(=O)c1cccc2cn(-c3ccc([C@@H]4CCCNC4)cc3)nc12 [NIRAPARIB] | 167 nM |  | 
9 |  |  |  | 2.8 |  |  |  | 0.1 | CCc1cc2ccc(CN3CCN(c4ccc(C(=O)NC)nc4)CC3)cc2[nH]c1=O | 4 nM |  | 21000 nM
10 | 3.1 |  | 10 µL/min/mg | 0.4 |  | 20 µM (≈ 9.18 µg/mL) |  |  | CCc1nc2ccc(CN3CCN(c4ccc(C(=O)NC)nc4F)CC3)c(Cl)c2[nH]c1=O | 17 nM |  | > 40000 nM
11 |  |  |  |  | 6 nM |  |  | 0.1 | C[C@]12CCCN1CC1=NNC(=O)c3cc(F)cc4[nH]c2c1c34 [PAMIPARIB] | 7 nM |  | 
12 | 3.3 | 5 nM | 13 µL/min/mg | 1.3 | 53000 nM | 30 µM (≈ 11.4 µg/mL) |  | 0.36 | CCc1nc2ccc(CN3CCN(c4ccc(F)nc4C)CC3)cc2[nH]c1=O | 10 nM | 11000 nM | 
13 |  |  | < 6 µL/min/mg |  |  |  |  | < 0.1 | CCc1cc2ncc(CN3CCN(c4ccc(C(=O)NC)nc4)CC3)cc2[nH]c1=O [SARUPARIB] |  |  | > 40000 nM
